Results reported in US12370161B2, “Composition for treating atopy or pruritus comprising N-acetyl or N-acyl amino acid” (STEMDR INC., priority 2017, dated 2025).
Entries after “also recorded” stand apart in the source; their conditions may differ.

Experiments:
IgE = assay: Serum IgE level by ELISA, Balb/c; format: in vivo, mouse; settings: atopy-induced Balb/c mice
Experimental: After treatment with the test substance, the mice were sacrificed and blood was taken from the heart. After isolating serum from the blood, IgE level was measured. Specifically, after attaching antibodies diluted in a buffer solution onto a 96-well plate and incubating overnight at 4° C., experiment was conducted using an IgE ELISA kit (BD Biosciences, San Diego, CA) according to the provided manual. The quantity of the IgE protein was determined by measuring absorbance at 450 nm using a microplate reader.

interferon γ = assay: Interferon γ mRNA in skin tissue by quantitative real-time PCR, Balb/c; format: in vivo, mouse; settings: atopy-induced Balb/c mice, normalized to β-actin
Experimental: (§1) After isolating total RNA from the atopy-induced skin tissue using 500 μL of Trizol (Life Technologies, USA) according to the manufacturer's protocol and synthesizing cDNA using the Superscript III reverse transcriptase (Life Technologies, USA), real-time PCR was conducted by reacting with the primers of IL4 and interferon γ to be analyzed. The real-time PCR was conducted on a StepOne Plus PCR cycler (Applied Biosystems) using SYBR Green (Applied Biosystems, Foster City, CA). The mRNA expression data were analyzed by the ΔΔCT method and were normalized to β-actin for gene detection. The primers necessary for the real-time PCR were purchased from Qiagen (USA). […] IL4 is known to induce TH2 response and interferon γ is known to induce TH1 response.

[1] = tested on: pruritus caused by atopic contact dermatitis; assay: Pruritus inhibition test, pruritus induced with DNFB; format: in vivo, mouse; settings: 0.1% in physiological saline applied once onto right ear; pruritus measured for 1 hour
Experimental: In order to investigate whether L-form, LID-form and D-form N-acetylalanine, N-acetylarginine, N-acetylthreonine and N-acetyltryptophan inhibit pruritus caused by atopic contact dermatitis, 20 μL of 0.1% 2,4-dinitrofluorobenzene (DNFB) solution and 0.1% N-acetylamino acid dissolved in physiological saline were applied once onto the right ear 10 minutes after the final treatment (day 27) with 2,4-dinitrofluorobenzene (DNFB) (Physiological saline was applied to a negative control group), and then pruritus was measured for 1 hour. FIG. 7 compares the pruritus-relieving effect of L-form N-acetylalanine, N-acetylthreonine, N-acetylarginine and N-acetyltryptophan with D/L-form and D-form N-acetylalanine and N-acetyltryptophan at 0.1% after the induction of pruritus with DNFB.

IL4 = IL4 mRNA in skin tissue by quantitative real-time PCR, Balb/c; format: in vivo, mouse; settings: atopy-induced Balb/c mice, normalized to β-actin
Experimental: as §1

[2] = tested on: atopic dermatitis-induced Balb/c mouse; assay: SCORAD clinical skin score, DNFB-induced atopic dermatitis in Balb/c mouse; format: in vivo; set-up: key to Mouse 1 Sum / Mean (of Sum, SCORAD) / Mouse 2 Sum / Mouse 3 Sum: sum of symptom grades, each 0 (none) to 3 (severe); settings: for skin-soothing and atopic dermatitis-treating effect (SCORAD, Table 1, FIG. 2A): Balb/c atopic dermatitis model, 0.1% topical, P<0.05 versus DNFB group; for apparent degree of dermatitis (back skin images, FIG. 2B): Balb/c, treated for 7 days, day 29; for Mouse 1 Erythema / Mouse 1 Abrasion / Mouse 1 Dryness / Mouse 1 Edema / Mouse 1 Eschar / Mouse 1 Lichenification / Mouse 1 Sum / Mouse 2 Abrasion / Mouse 2 Dryness / Mouse 2 Edema / Mouse 2 Erythema / Mouse 2 Eschar / Mouse 2 Lichenification / Mouse 2 Sum / Mouse 3 Abrasion / Mouse 3 Dryness / Mouse 3 Edema / Mouse 3 Erythema / Mouse 3 Eschar / Mouse 3 Lichenification / Mouse 3 Sum / Mean (of Sum, SCORAD): DNFB Balb/c; for Mouse 1 Erythema: 0.1% in PBS, 200 μL on back skin daily day 22-28, grade 0-3 (0 no symptom, 1 mild, 2 moderate, 3 severe); for Mouse 1 Abrasion / Mouse 1 Dryness / Mouse 1 Edema / Mouse 1 Eschar / Mouse 1 Lichenification / Mouse 1 Sum / Mouse 2 Abrasion / Mouse 2 Dryness / Mouse 2 Edema / Mouse 2 Erythema / Mouse 2 Eschar / Mouse 2 Lichenification / Mouse 2 Sum / Mouse 3 Abrasion / Mouse 3 Dryness / Mouse 3 Edema / Mouse 3 Erythema / Mouse 3 Eschar / Mouse 3 Lichenification / Mouse 3 Sum / Mean (of Sum, SCORAD): 0.1% topical day 22-28; for Mouse 1 Abrasion / Mouse 1 Dryness / Mouse 1 Edema / Mouse 1 Eschar / Mouse 1 Lichenification / Mouse 2 Abrasion / Mouse 2 Dryness / Mouse 2 Edema / Mouse 2 Erythema / Mouse 2 Eschar / Mouse 2 Lichenification / Mouse 3 Abrasion / Mouse 3 Dryness / Mouse 3 Edema / Mouse 3 Erythema / Mouse 3 Eschar / Mouse 3 Lichenification: grade 0-3; for Mouse 1 Sum / Mouse 2 Sum / Mouse 3 Sum: overall dermatitis score, sum of individual scores; for Mean (of Sum, SCORAD): mean of 3 mice
Experimental: In order to induce atopy-like dermatitis in Balb/c mice, DNFB sensitization was induced by applying 100 μL of 0.35% 2,4-dinitrofluorobenzene (DNFB) (Sigma, USA) in acetone/olive oil (3:1) on the shaved back skin of the mice. Then, dermatitis was induced by applying 100 μL of 0.25% DNFB on days 6, 9, 12, 15, 18 21, 24 and 27 on the shaved back skin. Control mice were treated with a vehicle of the same volume (FIG. 1A).
After dissolving an N-acetyl or N-acylamino acid in phosphate-buffered saline to 0.1%, 200 μL of the solution was applied on the back skin of the mice every day, from day 22 until day 28 for the Balb/c atopic dermatitis model, and from day 15 until day 21 for the Nc/Nga atopic dermatitis model. When the N-acetyl or N-acylamino acid was treated together with DNFB, they were treated with 12-hour intervals in order to avoid direct reaction between the DNFB and the N-acetyl or N-acylamino acid. A non-treated group and a 2,4-dinitrofluorobenzene (DNFB) group were treated with phosphate-buffered saline of the same volume (FIGS. 1A-1B). As the N-acetylamino acid, products purchased from Sigma-Aldrich (USA), MP scientific (USA), TCI (Tokyo Chemical Industry, Japan), Santacruz (USA), etc. were used without purification.
The degree of skin soothing and the severity of atopic dermatitis were evaluated macroscopically according to the previously established SCORAD (SCORing Atopic Dermatitis) method (Oranje et al., 2007). The degree of symptoms such as edema, erythema, eschar, dryness, abrasion, lichenification, etc. was graded from 0 to 3 (0, no symptom; 1, mild; 2, moderate; 3, severe). The overall dermatitis score was determined from the sum of all individual scores (Table 1). The assessment was performed by an investigator who was blind to the grouping of the mice.

Structure (SMILES)	serum IgE level (FIG. 4A) (IgE)	level of interferon γ in the skin tissue (FIG. 5A) (interferon γ)	level of IL4 in the skin tissue (FIG. 5A) (IL4)	skin-soothing and atopic dermatitis-treating effect (SCORAD, Table 1, FIG. 2A) [2]	apparent degree of dermatitis (back skin images, FIG. 2B) [2]	Mouse 1 Erythema [2]	Mouse 1 Abrasion [2]	Mouse 1 Dryness [2]	Mouse 1 Edema [2]	Mouse 1 Eschar [2]	Mouse 1 Lichenification [2]	Mouse 1 Sum [2]	Mouse 2 Abrasion [2]	Mouse 2 Dryness [2]	Mouse 2 Edema [2]	Mouse 2 Erythema [2]	Mouse 2 Eschar [2]	Mouse 2 Lichenification [2]	Mouse 2 Sum [2]	Mouse 3 Abrasion [2]	also measured
CC(=O)N[C@@H](CCCNC(=N)N)C(=O)O [N-acetyl-L-arginine]	significant decrease	significantly decreased	significantly decreased	significant skin-soothing and atopic dermatitis-treating effects; also recorded: significant atopic dermatitis-treating effect	decreased remarkably	1	1	1	1	1	1	6	1	1	1	1	1	1	6	0	pruritus-relieving effect (FIG. 7) [1]: significantly inhibited pruritus; Mouse 3 Dryness [2]: 1; Mouse 3 Edema [2]: 1; Mouse 3 Erythema [2]: 1; Mouse 3 Eschar [2]: 1; Mouse 3 Lichenification [2]: 1; Mouse 3 Sum [2]: 5; Mean (of Sum, SCORAD) [2]: 5.67
CC(=O)N[C@@H](CS)C(=O)O [N-acetyl-L-cysteine, reference compound]	significant decrease	significantly decreased	significantly decreased	significant skin-soothing and atopic dermatitis-treating effects; also recorded: significant atopic dermatitis-treating effect	decreased remarkably	2	2	2	2	2	3	13	2	3	1	2	2	3	13	2	Mouse 3 Dryness [2]: 2; Mouse 3 Edema [2]: 2; Mouse 3 Erythema [2]: 1; Mouse 3 Eschar [2]: 2; Mouse 3 Lichenification [2]: 2; Mouse 3 Sum [2]: 11; Mean (of Sum, SCORAD) [2]: 12.33
CC(=O)N[C@H](C(=O)O)[C@@H](C)O [N-acetyl-L-threonine]	significant decrease	significantly decreased	significantly decreased	significant skin-soothing and atopic dermatitis-treating effects; also recorded: significant atopic dermatitis-treating effect	decreased remarkably	1	1	2	1	1	1	7	1	0	1	1	1	1	5	0	pruritus-relieving effect (FIG. 7) [1]: significantly inhibited pruritus; Mouse 3 Dryness [2]: 1; Mouse 3 Edema [2]: 1; Mouse 3 Erythema [2]: 1; Mouse 3 Eschar [2]: 2; Mouse 3 Lichenification [2]: 1; Mouse 3 Sum [2]: 6; Mean (of Sum, SCORAD) [2]: 6
